From patent publication US9457018B2, “Method for combating adverse effects arising from antipsychotic treatment” (Saniona A/S, priority 2008, dated 2016)

Assay: Olanzapine-induced weight gain in a rat model of antipsychotic drug induced obesity (three weeks study)
Assay type: in vivo, Female Sprague-Dawley (SPRD) rats
Details: tesofensine 2.0 mg/kg s.c. co-treatment with olanzapine 2.0 mg/kg p.o. from day 15, for 7 days, female SPRD rats
Method: Female Sprague-Dawley (SPRD) rats were placed on 10% fat kcal futter. The rats were tagged subcutaneously with a microship in the neck and placed in an automatized food intake monitoring system. […] Co-administration of vehicle or tesofensine continued for 7 days in total. Body weight and food intake was measured on a daily basis, and body weight gain and cumulative food intake was calculated. Data were evaluated using a two-way ANOVA with Bonferroni's post-hoc test (daily body weight gain and food intake) or a one-way ANOVA with Tukey's post-hoc test.

CCOC[C@@H]1[C@@H](c2ccc(Cl)c(Cl)c2)C[C@@H]2CC[C@H]1N2C [tesofensine, (1R,2R,3S,5S)-3-(3,4-dichlorophenyl)-2-(ethoxymethyl)-8-methyl-8-azabicyclo[3.2.1]octane]
effect on hypophagic response to olanzapine (food intake): completely prevented | effect on olanzapine-induced body weight gain: completely prevented | effect on hypophagic response to olanzapine (food intake) (listed as Tesofensine): prevents | effect on olanzapine-induced body weight gain (listed as Tesofensine): prevents
